The assay is described as follows: In vivo modulation of gamma secretase in nonhuman primate assessed as reduction in Abeta40 levels in CSF by measuring AUC(0 to 48 hrs) at 30 mg/kg, po by ELISA. The assay is classed as functional, Primates, Cerebrospinal fluid. Set-up: scale not given: the % may be the effect or the level left. A general note: ELISA stands for enzyme-linked immunosorbent assay.

The structures appear in SMILES notation.

`COc1nc(C2=NOC(C3CC3)C(c3ccc(Cl)cc3)N2)ccc1-n1cnc(C)c1` (stereo unspecified): the Activity was determined as 25%.

Source of the values: ChEMBL document CHEMBL4837257, “Discovery of the Oxadiazine FRM-024: A Potent CNS-Penetrant Gamma Secretase Modulator” (J Med Chem, 2021).
